Drawing on patent US8017629B2, “Compounds and uses thereof in modulating amyloid β” (Neurogenetic Pharmaceuticals, Inc., priority 2003, dated 2011), this text covers EC50 for 71 compounds.

The assay has as its system Aβ42 levels in the extracellular medium. The experiment in a line: FRET (HTRF) assay, Aβ42 level of the extracellular medium of SH-SY5Y-APP cells. Format: cell-based. Particulars: Homo sapiens, concentration at which reduction of Aβ42 level was half of the maximum reduction, read-out: Ab42 Potency. As for the experimental part: Compounds were evaluated for activity in modulating Aβ42 and Aβ40 levels in the extracellular medium using a homogeneous time-resolved fluorescence (HTRF) assay as follows.
For the HTRF assay, either 5 or 10 μl of supernatant from treated cells was added to 10 or 15 μl of labeled antibody pairs, for a total volume of 20 μl, and incubated for 20-24 hours at 4° C. The labeled antibody pairs were either 8000 pg B436-XL665 and 400 pg B113 Europium, for assessing Aβ40 levels, or 8000 pg B436-XL665 and 400 pg A387 Europium, for assessing Aβ42 levels, diluted in 50 mM NaPO4, 0.2% BSA, 0.5M KF, pH 7. The fluorescence was read on a BMG Rubystar at 620 nm and 665 nm.
For orientation: Time-resolved FRET reads energy transfer from a long-lived donor to a nearby acceptor.
Regarding `COc1ccc(-c2csc(Nc3ccc4[nH]cnc4c3)n2)c(OC)c1` [Compound 160], the EC50 was 0.2 to 1 µM.

For the compound `c1nc2cc(Nc3nc(-c4ccc5c(c4)OCO5)cs3)ccc2[nH]1` [Compound 161], the EC50 fell in the range of 5.1 to 10 µM.

Turning to `CCN1CCN(c2ccc(-c3csc(Nc4ccc5c(c4)OCO5)n3)cc2)CC1` [Compound 162], the EC50 was 1.1 to 5 µM.

As to `CCCN(c1ccc2c(c1)OCO2)c1nc(-c2ccc(N3CCN(C)CC3)cc2)cs1` [Compound 163], the EC50 lay in the range of 5.1 to 10 µM.

Consider `c1cc2c(cc1Nc1nc(-c3ccc(N4CCN(CC5CC5)CC4)cc3)cs1)OCO2` [Compound 164], for which the EC50 fell in the range of 5.1 to 10 µM.

As for `CSc1cccc(Nc2nc(-c3ccc(N(C)C)cc3)cs2)c1` [Compound 165], the EC50 was 5.1 to 10 µM.

`CSc1cccc(Nc2nc(-c3ccc(N4CCCC4)cc3)cs2)c1` [Compound 166]: the EC50 was in the range of 0.2 to 1 µM.

Consider `CSc1cccc(Nc2nc(-c3ccc4c(c3)OCCO4)cs2)c1` [Compound 167], for which the EC50 was in the range of 5.1 to 10 µM.

`CSc1cccc(Nc2nc(-c3ccc(-c4ccccc4)cc3)cs2)c1` [Compound 168]: the EC50 lay within 1.1 to 5 µM.

With `CC(C)N(c1ccccc1)c1ccc(Nc2nc(-c3ccncc3)cs2)cc1` [Compound 169], the EC50 lay within 10.1 to 30 µM.

For `c1cc(Nc2nc(-c3ccncc3)cs2)c2cn[nH]c2c1` [Compound 170], the EC50 was in the range of 1.1 to 5 µM.

On to `COc1ccc(-c2csc(Nc3cccc4[nH]ncc34)n2)c(OC)c1` [Compound 171], for which the EC50 was in the range of 1.1 to 5 µM.

`c1cc(Nc2nc(-c3ccc4c(c3)OCO4)cs2)c2cn[nH]c2c1` [Compound 172]: the EC50 lay in the range of 1.1 to 5 µM.

In the case of `Clc1ccc(Nc2nc(-c3ccc(-n4ccnc4)cc3)cs2)cc1Cl` [Compound 173], the EC50 lay within 1.1 to 5 µM.

For `CCCN(c1ccc(Cl)c(Cl)c1)c1nc(-c2ccc(-n3ccnc3)cc2)cs1` [Compound 174], the EC50 fell in the range of 10.1 to 30 µM.

In the case of `CCCN(c1nc(-c2ccc(-n3ccnc3)cc2)cs1)c1ccc(N(CC)CC)cc1C` [Compound 175], the EC50 is 10.1 to 30 µM.

On to `CCN(CC)c1ccc(N(CC)c2nc(-c3ccc(-n4ccnc4)cc3)cs2)c(C)c1` [Compound 176], for which the EC50 lay in the range of 5.1 to 10 µM.

In the case of `CCN(CC)c1ccc(Nc2nc(-c3ccc(-n4ccnc4)cc3)cs2)cc1` [Compound 177], the EC50 was in the range of 1.1 to 5 µM.

With `Cc1cc(C)cc(Nc2nc(-c3ccc(-n4cnc(-c5ccccc5)c4)cc3)cs2)c1` [Compound 178], the EC50 is 10.1 to 30 µM.

With `CCN(CC)c1ccc(Nc2nc(-c3ccc(-n4cnc(C)c4)cc3)cs2)c(C)c1` [Compound 179], the EC50 was 0.2 to 1 µM.

As to `CCN(c1ccc(N2CCOCC2)cc1)c1nc(-c2ccc(-n3ccnc3)cc2)cs1` [Compound 180], the EC50 fell in the range of 1.1 to 5 µM.

As to `COc1cccc(Nc2nc(-c3ccc(-n4ccnc4)cc3)cs2)c1` [Compound 181], the EC50 fell in the range of 10.1 to 30 µM.

Take `COc1ccc(-c2csc(Nc3ccc4c(c3)OCCO4)n2)c(OC)c1` [Compound 182]: the EC50 lay in the range of 10.1 to 30 µM.

Regarding `CSc1cccc(Nc2nc(-c3ccc4c(c3)OCO4)cs2)c1` [Compound 183], the EC50 is 10.1 to 30 µM.

For the compound `CCN(c1ccc(N2CCCCC2)cc1)c1nc(-c2ccc(-n3ccnc3)cc2)cs1` [Compound 184], the EC50 lay within 1.1 to 5 µM.

`Cc1ccc(C)c(Nc2nc(-c3ccc(-n4cnc(C)c4)nc3)cs2)c1` [Compound 185]: the EC50 was under 0.2 µM.

As for `Clc1ccc(Nc2nc(-c3ccc(-n4cnc(Cl)c4Cl)cc3)cs2)cc1Cl` [Compound 186], the EC50 lay within 1.1 to 5 µM.

On to `COc1ccc(-c2nc(Nc3cc(Cl)c(Cl)cc3Cl)sc2CC(=O)O)cc1` [Compound 187], for which the EC50 fell in the range of 1.1 to 5 µM.

On to `CN1CCC(CNc2ccc(Nc3nc(-c4ccc(-n5ccnc5)cc4)cs3)cc2)CC1` [Compound 188], for which the EC50 is 1.1 to 5 µM.

For `CCN(CC)c1ccc(Nc2nc(-c3ccc(-n4ccnc4C)cc3)cs2)c(C)c1` [Compound 189], the EC50 fell in the range of 1.1 to 5 µM.

On to `CCN(CC)c1ccc(Nc2nc(-c3ccc(-n4cnc(C)c4)cc3OC)cs2)c(C)c1` [Compound 190], for which the EC50 was 0.2 to 1 µM.

For the compound `CN1CCN(C(=O)c2ccc(Nc3nc(-c4ccc(N5CCN(C)CC5)cc4)cs3)cc2)CC1` [Compound 191], the EC50 lay within 1.1 to 5 µM.

Take `CC(C)N1CCN(C(=O)c2ccc(Nc3nc(-c4ccc(N5CCN(C)CC5)cc4)cs3)cc2)CC1` [Compound 192]: the EC50 lay in the range of 5.1 to 10 µM.

On to `Cc1ccc(Nc2nc(-c3ccc(C#N)cc3)cs2)cc1Cl` [Compound 193], for which the EC50 fell in the range of 10.1 to 30 µM.

For the compound `COc1ccc(-c2csc(Nc3ccc(C)c(Cl)c3)n2)c(OC)c1` [Compound 194], the EC50 lay within 1.1 to 5 µM.

Turning to `Cc1ccc(Nc2nc(-c3ccc(N4CCN(C)CC4)cc3)cs2)cc1C` [Compound 195], the EC50 was 10.1 to 30 µM.

Regarding `CSc1ccccc1Nc1nc(-c2ccc(N3CCN(C)CC3)cc2)cs1` [Compound 196], the EC50 lay within 5.1 to 10 µM.

Turning to `COc1ccc(C)c(Nc2nc(-c3ccc(-n4cnc(C)c4)nc3)cs2)c1` [Compound 197], the EC50 is under 0.2 µM.

Take `CN1CCN(c2ccc(-c3csc(Nc4ccc(OC(F)(F)F)c(Cl)c4)n3)cc2)CC1` [Compound 198]: the EC50 is 1.1 to 5 µM.

For the compound `CCN(CC)c1ccc(Nc2nc(-c3ccc(-n4cnc(Br)c4)cc3)cs2)c(C)c1` [Compound 199], the EC50 lay in the range of 0.2 to 1 µM.

For the compound `Cc1cc(N2CCN(C)CC2)ccc1Nc1nc(-c2ccc(-n3ccnc3)cc2)cs1` [Compound 200], the EC50 fell in the range of 1.1 to 5 µM.

For `Cc1cc(N2CCN(Cc3ccccc3)CC2)ccc1Nc1nc(-c2ccc(-n3ccnc3)cc2)cs1` [Compound 201], the EC50 lay within 1.1 to 5 µM.

Turning to `Cc1cc(NCCN(C)C)ccc1Nc1nc(-c2ccc(-n3ccnc3)cc2)cs1` [Compound 202], the EC50 fell in the range of 1.1 to 5 µM.

As to `CCN(CCO)c1ccc(Nc2nc(-c3ccc(-n4ccnc4)cc3)cs2)c(C)c1` [Compound 203], the EC50 is 1.1 to 5 µM.

Regarding `CCN(CCO)c1ccc(Nc2nc(-c3ccc(-n4cnc(C)c4)cc3)cs2)c(C)c1` [Compound 204], the EC50 was 0.2 to 1 µM.

As to `CCN(CC)c1ccc(Nc2nc(-c3ccc(-n4cnc(C)c4)cc3C(F)(F)F)c(C)s2)c(C)c1` [Compound 205], the EC50 lay within 1.1 to 5 µM.

In the case of `CCN(CCO)c1ccc(Nc2nc(-c3ccc(-n4cnc(C)c4)cc3C(F)(F)F)c(C)s2)c(C)c1` [Compound 206], the EC50 lay within 5.1 to 10 µM.

Consider `CCN(CCO)c1ccc(Nc2nc(-c3ccc(-n4cnc(C)c4)cc3OC)cs2)c(C)c1` [Compound 207], for which the EC50 fell in the range of 1.1 to 5 µM.

In the case of `Cc1cc(NCc2ccccn2)ccc1Nc1nc(-c2ccc(-n3ccnc3)cc2)cs1` [Compound 208], the EC50 lay within 5.1 to 10 µM.

In the case of `CCc1ccc(C)nc1Nc1ccc(Nc2nc(-c3ccc(-n4ccnc4)cc3)cs2)c(C)c1` [Compound 209], the EC50 lay in the range of 5.1 to 10 µM.

As to `CCN(CC)CCN(C)c1ccc(Nc2nc(-c3ccc(-n4ccnc4)cc3)cs2)c(C)c1` [Compound 210], the EC50 was in the range of 1.1 to 5 µM.

As to `N#Cc1ccc(-c2csc(Nc3cc(Cl)cc(Cl)c3)n2)cc1` [Compound 211], the EC50 was 10.1 to 30 µM.

As for `Brc1cccc(Nc2nc(-c3ccc(-n4ccnc4)cc3)cs2)c1` [Compound 212], the EC50 fell in the range of 1.1 to 5 µM.

On to `Clc1cc(Cl)c(Nc2nc(-c3ccc(-n4ccnc4)cc3)cs2)c(Cl)c1` [Compound 213], for which the EC50 was 1.1 to 5 µM.

`CS(=O)(=O)c1ccc(-c2csc(Nc3c(Cl)cc(Cl)cc3Cl)n2)cc1` [Compound 214]: the EC50 was in the range of 10.1 to 30 µM.

On to `CN1CCN(c2ccc(Nc3nc(-c4ccc(-n5ccnc5)cc4)cs3)c(C(F)(F)F)c2)CC1` [Compound 215], for which the EC50 is 1.1 to 5 µM.

`CN1CCC(CNc2ccc(Nc3nc(-c4ccc(-n5ccnc5)cc4)cs3)c(C(F)(F)F)c2)CC1` [Compound 216]: the EC50 was in the range of 5.1 to 10 µM.

`CN(C)CCNc1ccc(Nc2nc(-c3ccc(-n4ccnc4)cc3)cs2)c(C(F)(F)F)c1` [Compound 217]: the EC50 fell in the range of 1.1 to 5 µM.

Consider `CCN(CC)c1ccc(Nc2nc(-c3ccc(-n4ccnc4)cc3)cs2)c(C(F)(F)F)c1` [Compound 218], for which the EC50 lay in the range of 1.1 to 5 µM.

For the compound `CCN(CC)CCN(C)c1ccc(Nc2nc(-c3ccc(-n4ccnc4)cc3)cs2)c(C(F)(F)F)c1` [Compound 219], the EC50 fell in the range of 1.1 to 5 µM.

Turning to `FC(F)(F)c1cc(NC2CCCC2)ccc1Nc1nc(-c2ccc(-n3ccnc3)cc2)cs1` [Compound 220], the EC50 lay within 10.1 to 30 µM.

As to `FC(F)(F)c1cc(N2CC=CC2)ccc1Nc1nc(-c2ccc(-n3ccnc3)cc2)cs1` [Compound 221], the EC50 was in the range of 1.1 to 5 µM.

With `FC(F)(F)c1cc(NCCN2CCCC2)ccc1Nc1nc(-c2ccc(-n3ccnc3)cc2)cs1` [Compound 222], the EC50 lay within 1.1 to 5 µM.

On to `FC(F)(F)c1cc(NCc2ccccn2)ccc1Nc1nc(-c2ccc(-n3ccnc3)cc2)cs1` [Compound 223], for which the EC50 fell in the range of 5.1 to 10 µM.

As to `CNCCN(C)c1ccc(Nc2nc(-c3ccc(-n4ccnc4)cc3)cs2)c(C(F)(F)F)c1` [Compound 224], the EC50 was in the range of 1.1 to 5 µM.

On to `Cc1cn(-c2ccc(-c3csc(Nc4ccc(N5CCOCC5)c(Cl)c4)n3)cc2)cn1` [Compound 225], for which the EC50 lay in the range of 1.1 to 5 µM.

Take `Cc1cccc(Nc2nc(-c3ccc(N4CCN(C)CC4)cc3)cs2)c1` [Compound 226]: the EC50 lay in the range of 1.1 to 5 µM.

For the compound `CCN(CC)c1ccc(Nc2nc(-c3ccc(-n4cnc(C)c4)cc3C(F)(F)F)cs2)c(C)c1` [Compound 227], the EC50 is 5.1 to 10 µM.

As to `CCN(CCO)c1ccc(Nc2nc(-c3ccc(-n4cnc5ccccc54)cc3)cs2)c(C)c1` [Compound 228], the EC50 lay within 5.1 to 10 µM.

Turning to `Cc1cn(-c2ccc(-c3csc(Nc4ccc(N5CCOCC5)c(Cl)c4)n3)c(C(F)(F)F)c2)cn1` [Compound 229], the EC50 fell in the range of 5.1 to 10 µM.

Regarding `CCN(CCOC)c1ccc(Nc2nc(-c3ccc(-n4ccnc4)cc3)cs2)c(C)c1` [Compound 230], the EC50 was in the range of 1.1 to 5 µM.
